Measurements taken from article PMC5226997 (European Journal of Clinical Pharmacology, 2016).
“And” between values parts separate entries of the source, which are not always exact repeats. Identical values can stand only once. Like-named read-outs stand apart in the source and are kept apart here. Marks after values point to notes of the source that are not given here.

How the values were obtained:
[1] = Frozen storage stability in plasma samples; conditions: plasma with K2EDTA; -20°C -80°C
Procedure: (§1) After addition of deuterated internal standard, samples were extracted by protein precipitation by the addition of 4 volumes of methanol:acetonitrile. After centrifugation, the supernatants were extracted to dryness under nitrogen at 50°C and reconstituted in methanol;water before analysis.

[2] = human, in vivo, 75 mg
Procedure: (§2) The rifampicin open-label, fixed-sequence, single-center trial consisted of three visits to the study center (Fig. 1b). Subjects were screened during visit 1, which is 28 days prior to visit 2. […] Safety assessments were performed, and blood samples were collected for PK analysis up until day 15. Subjects were discharged from the study center on day 15. The final visit, visit 3, was for follow-up and took place 7–10 days after discharge.
(§3) Subjects received daily dosing of rifampicin 600 mg for 8 days to maximize the induction effect on CYP3A4 [10]. […] Fluids were not allowed from 1 h pre- until 1 h post-dose, with the exception of water needed to swallow investigational products.
(§4) Blood samples were collected prior to itraconazole or fluconazole administration on days 6 to 8 to determine trough itraconazole or fluconazole concentrations; rifampicin concentrations were measured at 2 h post-dose. In study B, the 4β-hydroxycholesterol to cholesterol concentration ratio was calculated as a biomarker of CYP3A4 induction. […] Samples were analyzed by Covance on behalf of AstraZeneca R&D, using an appropriate bioanalytical method [e.g., [11], [12]].
(§5) PK variables were summarized using descriptive statistics.
as §1

[3] = human, in vivo
From the text: (§6) The phase I, open-label, single-center, double-crossover-sequence, partially randomized (for assignment to treatment sequence), three-period itraconazole/fluconazole trial consisted of four visits to the study center (Fig. 1a). Subjects were screened during visit 1, which is 28 days prior to visit 2.
(§7) On day 1 of visit 2, subjects were randomized to one of two treatment sequences and admitted for residence at the study center up to day 12; standardized meals were provided during residency. […] Safety assessments were performed, and blood samples were collected for PK analysis up until day 12. Subjects were discharged on day 12 and completed a washout period of at least 21 days.
(§8) During visit 3, dosing period 3 comprised days 1–11 when subjects received the alternate treatment regimen (fluconazole 400 mg on day 1 followed by 200 mg once daily thereafter or itraconazole 200 mg twice daily) in a crossover fashion. […] Subjects were discharged on day 12. A follow-up visit, visit 4, was scheduled for 7–10 days after discharge from the study center.
(§9) Fluids were not allowed from 1 h pre- until 1 h post-dose, with the exception of 240 mL water to swallow the capsules. Fluconazole was dosed with a light breakfast; there were no restrictions regarding dosing with food in the SPC [8]. Itraconazole was dosed with a light breakfast and dinner as per SPC guidelines to ensure complete absorption [9].
as §4, §5, §1

[4] = Study A: safety and tolerability (adverse events); format: in vivo, human
[5] = Study B: safety and tolerability (adverse events); format: in vivo, human
Procedure: Adverse events (reported by system organ class and preferred term using the Medical Dictionary for Regulatory Activities (MedDRA) version 17.0), vital signs, 12-lead electrocardiograms (ECGs), and clinical laboratory tests were recorded to assess safety and tolerability in both trials. Adverse events were collected from day 1, period 1 of visit 2, until the follow-up visit in each trial. Serious adverse events were collected from the time of informed consent until follow-up. Each adverse event was assigned to the period of study treatment in which it started or worsened. Additional information regarding safety and tolerability is included as Online Resource 3.
The safety analysis set included any subject who received at least one dose of any of the investigational products, and in addition in the itraconazole/fluconazole trial, for whom post-dose data were available.

[6] = human
Procedure: as §1

[7] = Study A: plasma pharmacokinetics of single-dose selumetinib 25 mg alone or co-dosed with itraconazole or fluconazole; conditions: for AUC / Cmax / half-life: human, plasma, oral
From the text: as §6, §7, §8, §9, §4, §5, §1

[8] = Study B: plasma pharmacokinetics of single-dose selumetinib 75 mg alone or co-dosed with rifampicin; conditions: human, in vivo
Procedure: as §2, §3, §4, §5, §1

clinical = conditions: human, in vivo, 75 mg
Procedure: as §2, §3, §4, §5, §1

[9] = parameters: method as in earlier work; conditions: relative bioavailability trial NCT01635023; cited from earlier work
[10] = during single-agent (only) treatment
[11] = co-dosed with fluconazole vs selumetinib alone

SMILES: O=C(NOCCO)c1cc2nc[nH]c2c(F)c1Nc1ccc(Br)cc1Cl [N-desmethyl selumetinib]
- established frozen storage stability period [1]: 9 months
- AUC(0–t), geometric least squares mean (GLSMR line) [2]: 347.3 ng·h/mL
- C max, geometric least squares mean (GLSMR line) [2]: 106.4 ng/mL
- MRAUC (AUC metabolite to parent ratio), arithmetic mean (SD) [2]: 0.0921 (0.0236)^a
- MRAUC(0–t) (AUC(0–t) metabolite to parent ratio), arithmetic mean (SD) [2]: 0.0921 (0.0236)
- MRCmax (C max metabolite to parent ratio), arithmetic mean (SD) [2]: 0.0760 (0.0187)
- t 1/2 arithmetic mean (SD) [2]: 9.47 (3.24) h
- t max median (min, max) [2]: 1.50 (1.00, 3.00) h
- AUC(0–t), geometric least squares mean (GLSMR line) ([3]; 25 mg): 83.39 ng·h/mL
- C max, geometric least squares mean (GLSMR line) ([3]; 25 mg): 35.67 ng/mL
- MRAUC(0–t) (AUC(0–t) metabolite to parent ratio), arithmetic mean (SD) ([3]; 25 mg): 0.0760 (0.0227)
- MRCmax (C max metabolite to parent ratio), arithmetic mean (SD) ([3]; 25 mg): 0.0917 (0.0312)
- t 1/2 arithmetic mean (SD) ([3]; 25 mg): 4.66 (2.38) h
- t max median (min, max) ([3]; 25 mg): 1.00 (0.50, 2.50) h

SMILES: Cn1cnc2c(F)c(Nc3ccc(Br)cc3Cl)c(C(=O)NOCCO)cc21 [Selumetinib]
- subjects reporting adverse events [4, 10]: 7.7%
- subjects with selumetinib-related adverse events (diffuse alopecia, headache; mild) ([4]; selumetinib and itraconazole co-dosing, n = 2): 8.3%
- subjects reporting adverse events ([4]; selumetinib co-dosed with fluconazole, 4/22): 18.2%
- subjects with selumetinib-related acne (mild) ([4]; selumetinib co-dosed with fluconazole, one subject): 4.5%
- subjects reporting headache ([4]; selumetinib co-dosed with itraconazole, n = 4/24): 16.7%
- subjects reporting adverse events ([4]; selumetinib co-dosed with itraconazole, n = 7/24): 29.2%
- subjects reporting a moderate adverse event (headache) ([4]; selumetinib co-dosed with itraconazole, one subject): 4.2%
- tolerability ([4]; single dose or co-administered with itraconazole or fluconazole): well tolerated
- relation of adverse events to selumetinib treatment ([5]; all adverse events mild): unrelated
- subjects reporting at least one adverse event ([5]; selumetinib co-dosed with rifampicin, one subject (erythema)): 4.5%
- subjects reporting at least one adverse event ([5]; selumetinib-only treatment, four subjects): 18.2%
- tolerability ([5]; single dose or co-administered with rifampicin): well tolerated
- established frozen storage stability period [6]: 24 months
- AUC increased by [7, 11]: 53% and ~ 50%
- C max increased by [7, 11]: 26%
- AUC ([7]; 25 mg, AUC (CV%), study A, selumetinib 25 mg alone, N = 26): 1180 ng·h/mL
- AUC ([7]; 25 mg, AUC, geometric least squares mean (GLSMR line), study A, selumetinib 25 mg alone, n = 26, linear mixed-effects model): 1180 ng·h/mL
- Cmax ([7]; 25 mg, C max (CV%), study A, selumetinib 25 mg alone, N = 26): 409 ng/mL
- Cmax ([7]; 25 mg, C max, geometric least squares mean (GLSMR line), study A, selumetinib 25 mg alone, n = 26, linear mixed-effects model): 409 ng/mL
- half-life ([7]; 25 mg, t 1/2 arithmetic mean (SD), study A, selumetinib 25 mg alone, N = 26): 8.24 h
- AUC ([7]; AUC (CV%), study A, selumetinib 25 mg + fluconazole, N = 22): 1770 ng·h/mL
- AUC ([7]; AUC (CV%), study A, selumetinib 25 mg + itraconazole, N = 24): 1760 ng·h/mL
- AUC ([7]; AUC, geometric least squares mean (GLSMR line), study A, selumetinib 25 mg + fluconazole, n = 22, linear mixed-effects model): 1820 ng·h/mL
- AUC ([7]; AUC, geometric least squares mean (GLSMR line), study A, selumetinib 25 mg + itraconazole, n = 24, linear mixed-effects model): 1770 ng·h/mL
- Cmax ([7]; C max (CV%), study A, selumetinib 25 mg + fluconazole, N = 22): 509 ng/mL
- Cmax ([7]; C max (CV%), study A, selumetinib 25 mg + itraconazole, N = 24): 484 ng/mL
- Cmax ([7]; C max, geometric least squares mean (GLSMR line), study A, selumetinib 25 mg + fluconazole, n = 22, linear mixed-effects model): 513 ng/mL
- Cmax ([7]; C max, geometric least squares mean (GLSMR line), study A, selumetinib 25 mg + itraconazole, n = 24, linear mixed-effects model): 484 ng/mL
- half-life ([7]; mean t 1/2 prolonged by, co-dosed with fluconazole vs selumetinib alone): ~1.5 h
- half-life ([7]; mean terminal half-life (t 1/2) prolonged by, co-dosed with itraconazole vs selumetinib alone): ~6 h
- half-life ([7]; t 1/2 arithmetic mean (SD), study A, selumetinib 25 mg + fluconazole, N = 22): 9.75 h
- half-life ([7]; t 1/2 arithmetic mean (SD), study A, selumetinib 25 mg + itraconazole, N = 24): 14 h
- CL/F arithmetic mean (SD) ([7]; study A, selumetinib 25 mg + fluconazole, N = 22): 14.8 (4.39) L/h
- CL/F arithmetic mean (SD) ([7]; study A, selumetinib 25 mg + itraconazole, N = 24): 14.9 (4.92) L/h
- CL/F arithmetic mean (SD) ([7]; study A, selumetinib 25 mg alone, N = 26): 21.9 (5.76) L/h
- C max, geometric least squares mean (GLSMR line) [2]: 1441 ng/mL
- CL/F arithmetic mean (SD) [2]: 17.0 (3.33) L/h
- AUC [8]: 4480 ng·h/mL
- Tmax (clinical): 1.27 h
- AUC (clinical; AUC, geometric least squares mean (GLSMR line)): 4480 ng·h/mL
- half-life (clinical; t 1/2 arithmetic mean (SD)): 9.27 h
- within-subject coefficient of variation (CV) for AUC [9]: 16.9%
- within-subject coefficient of variation (CV) for C max [9]: 34.0%

SMILES: OC(Cn1cncn1)(Cn1cncn1)c1ccc(F)cc1F [fluconazole, reference compound]
- subjects reporting adverse events [4, 10]: 17.4%
- trough plasma concentration (geometric mean) [3]: 5590 to 5730 ng/mL

SMILES: CCC(C)n1ncn(-c2ccc(N3CCN(c4ccc(OCC5COC(Cn6cncn6)(c6ccc(Cl)cc6Cl)O5)cc4)CC3)cc2)c1=O (centres unmarked) [itraconazole, reference compound]
- subjects reporting adverse events [4, 10]: 20.8%

SMILES: CO[C@H]1/C=C/O[C@@]2(C)Oc3c(C)c(O)c4c(O)c(c(/C=N/N5CCN(C)CC5)c(O)c4c3C2=O)NC(=O)/C(C)=C\C=C\[C@H](C)[C@H](O)[C@@H](C)[C@@H](O)[C@@H](C)[C@H](OC(C)=O)[C@@H]1C [rifampicin, reference compound]
- subjects reporting adverse events ([5]; period of rifampicin administration (days 4–11)): all subjects
- subjects reporting chromaturia ([5]; period of rifampicin administration (days 4–11), resolved 2 to 3 days after treatment ceased): reported by all of these subjects
